Data from paper PMC3132048, “Treatment of experimental adjuvant arthritis with a novel folate receptor-targeted folic acid-aminopterin conjugate” (Arthritis Research & Therapy, 2011).
“And” between values parts separate entries of the source, which are not always exact repeats. Equal values may be shown once.

Tests used:
[1] = target: T1, human FRβ (CHO-FRβ cells) (Homo sapiens, UniProt P14207); test: Relative affinity assay: displacement of [3H]FA from CHO-FRβ cells; type: binding; conditions: 37°C, competitor of [3H]FA, inverse molar ratio to displace 50%
T1 construct: host or cells: CHO-K1 cells
Procedure: (§1) The relative affinities of EC0746, AMT, and MTX were determined according to a previously established method except that both KB cells and CHO-FRβ cells were used as the sources of FR [33]. KB cells are a human cancer cell line known for elevated expression of FRα. CHO-FRβ cells were obtained from Manohar Ratnam, Department of Biochemistry and Cancer Biology, The University of Toledo (Toledo, OH, USA). This cell line was originally generated by stable integration and amplification of a human FRβ cDNA expression construct in CHO-K1 cells.

[2] = test system: TNFα production in RAW264.7 cells; test: LPS-stimulated TNFα production (ELISA); type: cell-based, murine
Procedure: (§2) RAW264.7 cells in 96-well plates (3.5 × 10^4 cells/well) were treated with 10-fold serial dilutions of EC0746 (≤1 μM) in FFRPMI medium without and with 100-fold molar excess of FA. After a 2-hour exposure, the drug-containing media were replaced and the cells were allowed to incubate further for 70 hours (referred in the text as a 70-hour chase). In comparison, the cells were also treated continuously with AMT for 72 hours. Four hours prior to the end of incubation, LPS was added to the treated cells at a final concentration of 100 ng/ml. Then 100 μl culture supernatants were collected for TNFα analysis by ELISA. The cell viability was assessed by adding XTT to the remaining media for an additional 4 hours following the manufacturer's instructions. To evaluation of a cytostatic effect, RAW264.7 cells seeded at 1 × 10^6 cells/well in six-well plates were subjected to 2-hour exposure and a 70-hour chase with 0, 0.1, 10, and 1000 nM EC0746 without and with excess FA. At the end of the incubation (no LPS added), the surviving cells (that is, still viable cells) were recovered and redistributed in equal numbers in fresh medium for an additional 72 hours. The cell proliferation was again assessed by the XTT assay. All results were expressed as the percentage absorbance (minus background) relative to the untreated control cells.

[3] = Preliminary short-term toxicity / MTD in folate-deficient healthy rats; type: in vivo, rat; conditions: folate-deficient rats
Procedure: The short-term toxicity and MTD of EC0746 and AMT were evaluated in healthy rats following the standard BIW subcutaneous dosing regimen used for efficacy studies. Further, these animals were put on a folate-deficient diet for ~20 days before treatment to match the folate deficiency status of AIA rats used for therapy. The folate-deficient but nonarthritic animals were thus given increasing doses of EC0746 and AMT for two consecutive weeks on a BIW basis. […] Standard hematologic and blood chemistry parameters were examined as needed along with histopathology.

[4] = Plasma pharmacokinetics after single subcutaneous dose; type: in vivo, rat
Procedure: Female Lewis rats with jugular vein catheters (Harlan Sprague Dawley) were used to assess the plasma pharmacokinetics of EC0746 and unconjugated AMT. The animals were divided into two main groups, one given a single dose of EC0746 s.c. and the second a single dose of AMT s.c., both at 500 nmol/kg. Whole blood samples (300 μl) were collected from three animals per time point at the following time points: 1 minute, 10 minutes, 30 minutes, 1 hour, 2 hours, 3 hours, 4 hours, and 8 hours after injection. The blood samples were placed into anticoagulant tubes containing 1.7 mg/ml K3EDTA and 0.35 mg/ml N-maleoyl-β-alanine (0.35 mg/ml) in a 0.15% acetic acid solution. Plasma samples were obtained by centrifugation for 3 minutes at ~2,000 × g and stored at -80°C. The amounts of EC0746 and AMT in the plasma and the two primary metabolites of EC0746 (AMT and AMT hydrazide) were determined by liquid chromatography/mass spectrometry/mass spectrometry.

[5] = target: T2, FRα (FRα-expressing KB cells) (Homo sapiens, UniProt P15328); test: Relative affinity assay: displacement of [3H]FA from KB cells; type: binding; conditions: 37°C, competitor of [3H]FA, inverse molar ratio to displace 50%
T2 construct: both KB cells and CHO-FRβ cells were used as the sources of FR; endogenous in cells; host or cells: KB cells
Procedure: as §1

RAW264.7 cells = type: cell-based, murine
Procedure: as §2

T2 sequence (P15328 25-257): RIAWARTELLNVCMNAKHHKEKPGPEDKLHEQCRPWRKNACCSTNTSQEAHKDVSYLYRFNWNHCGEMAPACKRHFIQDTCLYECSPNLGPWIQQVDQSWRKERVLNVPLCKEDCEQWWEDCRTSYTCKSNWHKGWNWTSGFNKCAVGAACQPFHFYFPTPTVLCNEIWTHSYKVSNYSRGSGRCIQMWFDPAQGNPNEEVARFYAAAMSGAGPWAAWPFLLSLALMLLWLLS
T1 sequence (P14207 17-255): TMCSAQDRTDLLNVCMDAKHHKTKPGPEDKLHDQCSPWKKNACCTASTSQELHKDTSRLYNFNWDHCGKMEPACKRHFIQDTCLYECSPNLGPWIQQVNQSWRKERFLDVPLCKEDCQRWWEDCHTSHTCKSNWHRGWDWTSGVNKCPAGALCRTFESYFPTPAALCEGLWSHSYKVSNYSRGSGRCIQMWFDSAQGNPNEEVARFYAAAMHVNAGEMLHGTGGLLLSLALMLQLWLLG

## Nc1nc(N)c2nc(CNc3ccc(C(=O)N[C@@H](CCC(=O)NNC(=O)OCCSSC[C@H](NC(=O)[C@H](CCC(=O)NC[C@H](O)[C@@H](O)[C@H](O)[C@H](O)CO)NC(=O)[C@H](CCC(=O)O)NC(=O)[C@H](CCC(=O)NC[C@H](O)[C@@H](O)[C@H](O)[C@H](O)CO)NC(=O)[C@H](CCC(=O)O)NC(=O)[C@H](CCC(=O)NC[C@H](O)[C@@H](O)[C@H](O)[C@H](O)CO)NC(=O)CC[C@H](NC(=O)c4ccc(NCc5cnc6nc(N)[nH]c(=O)c6n5)cc4)C(=O)O)C(=O)O)C(=O)O)cc3)cnc2n1 [EC0746]
[1]
  Relative affinity value (FA = 1): 0.27
[2]; 2-hour pulse, 70-hour chase, LPS 100 ng/ml last 4 hours, read-out: Relative 50% inhibitory concentration, TNFα after LPS stimulation
  IC50: ~1.6 nM
[2]; 100-fold molar excess FA
  TNFα effect competitive by excess FA: 100%
[3]; compared with AMT
  Gastrointestinal-associated side effects at respective MTD doses: less of the gastrointestinal-associated side effects than AMT
[3]; s.c., ratio of MTDs
  Difference in toxicity versus AMT (less toxic): ~ 40 fold and 40 fold
[4]; EC0746 500 nmol/kg s.c., 8-hour collection period
  Active drug exposure/release (AMT plus AMT hydrazide) detected in plasma, based on AUC: ~ 18%
[4]; after single s.c. dose of EC0746 500 nmol/kg, 8-hour collection, analyte = label
  Area under the curve: 32.5 nmol·min/mL
[4]; after single s.c. dose of EC0746 500 nmol/kg, analyte = label
  Elimination half-life: ~ 35 minutes
[5]
  Relative affinity value (FA = 1): 0.50
RAW264.7 cells; 2-hour pulse, 70-hour chase, read-out: Relative 50% inhibitory concentration, inhibition of cell proliferation (XTT)
  IC50: ~0.3 nM
RAW264.7 cells; 100-fold molar excess FA
  Antiproliferative effect competitive in presence of excess FA: 100%
RAW264.7 cells; additional 72-hour incubation after 2-hour pulse plus 70-hour chase
  Proliferation of surviving cells redispersed into fresh medium: could no longer divide
RAW264.7 cells; concentrations ≥1 nM, 2-hour pulse, 70-hour chase
  Maximum growth inhibition: ~ 50%
